Measured values from ChEMBL document CHEMBL1156232, “Non-classical antifolates. Part 2: synthesis, biological evaluation, and molecular modeling study of some new 2,6-substituted-quinazolin-4-ones” (Bioorg Med Chem, 2010).
Activity calls are given as the source filed them. No cut-off for these calls is given here.

How the values were obtained:
Staphylococcus aureus = assay: Antibacterial activity against Staphylococcus aureus at 200 ug/disk after 24 hrs by disk diffusion method; assay type: functional
Bacillus subtilis = assay: Antibacterial activity against Bacillus subtilis at 200 ug/disk after 24 hrs by disk diffusion method; assay type: functional
Micrococcus luteus = assay: Antibacterial activity against Micrococcus luteus at 200 ug/disk after 24 hrs by disk diffusion method; assay type: functional
Escherichia coli = assay: Antibacterial activity against Escherichia coli at 200 ug/disk after 24 hrs by disk diffusion method; assay type: functional
Pseudomonas aeruginosa = assay: Antibacterial activity against Pseudomonas aeruginosa at 200 ug/disk after 24 hrs by disk diffusion method; assay type: functional
Candida albicans [1] = assay: Antifungal activity against Candida albicans at 200 ug/disk after 48 hrs by disk diffusion method; assay type: functional, organism-based
Candida albicans [2] = assay: Antifungal activity against Candida albicans after 48 hrs by microdilution susceptibility method; assay type: functional, organism-based
Dihydrofolate reductase [3] = target: T1, Dihydrofolate reductase (Bos taurus, UniProt P00376)
T1 sequence (P00376 whole entry): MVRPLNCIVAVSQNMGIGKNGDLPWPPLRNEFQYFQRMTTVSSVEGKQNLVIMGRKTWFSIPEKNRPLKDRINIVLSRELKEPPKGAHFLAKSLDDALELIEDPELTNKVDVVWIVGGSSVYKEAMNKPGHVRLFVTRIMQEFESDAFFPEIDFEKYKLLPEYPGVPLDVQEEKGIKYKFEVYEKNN
Description: Inhibition of bovine DHFR after 2 mins

Dihydrofolate reductase [4] = target: T2, Dihydrofolate reductase (Homo sapiens, UniProt P00374)
T2 sequence (P00374 whole entry): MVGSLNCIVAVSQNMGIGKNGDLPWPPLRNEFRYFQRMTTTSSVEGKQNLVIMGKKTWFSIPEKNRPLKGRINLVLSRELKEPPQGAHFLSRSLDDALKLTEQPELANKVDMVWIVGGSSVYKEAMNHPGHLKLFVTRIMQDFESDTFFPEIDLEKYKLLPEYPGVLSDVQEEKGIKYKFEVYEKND
Description: Inhibition of human DHFR after 2 mins

Compound: C=CCN(CC=C)c1ccc2nc(SC)n(Cc3ccccc3)c(=O)c2c1
- diameter of the inhibition zone (DIZ) (Staphylococcus aureus): inactive
- diameter of the inhibition zone (DIZ) (Bacillus subtilis): inactive
- diameter of the inhibition zone (DIZ) (Micrococcus luteus): inactive
- diameter of the inhibition zone (DIZ) (Escherichia coli): inactive
- diameter of the inhibition zone (DIZ) (Pseudomonas aeruginosa): inactive
- Activity (Candida albicans [1]): inactive
- Activity (Candida albicans [2]): inactive
- IC50 (Dihydrofolate reductase [3]): 3000 nM
- IC50 (Dihydrofolate reductase [4]): 1000 nM

Compound: Nc1ccc2nc(SC/C=C/c3ccccc3)n(Cc3ccccc3)c(=O)c2c1
- diameter of the inhibition zone (DIZ) (Staphylococcus aureus): inactive
- diameter of the inhibition zone (DIZ) (Bacillus subtilis): inactive
- diameter of the inhibition zone (DIZ) (Micrococcus luteus): inactive
- diameter of the inhibition zone (DIZ) (Escherichia coli): inactive
- diameter of the inhibition zone (DIZ) (Pseudomonas aeruginosa): inactive
- Activity (Candida albicans [1]): inactive
- Activity (Candida albicans [2]): inactive
- IC50 (Dihydrofolate reductase [3]): 8000 nM
- IC50 (Dihydrofolate reductase [4]): 6000 nM

Compound: C=CCSc1nc2ccc(NC(=O)C=C)cc2c(=O)n1Cc1ccccc1
- diameter of the inhibition zone (DIZ) (Staphylococcus aureus): inactive
- diameter of the inhibition zone (DIZ) (Bacillus subtilis): inactive
- diameter of the inhibition zone (DIZ) (Micrococcus luteus): inactive
- diameter of the inhibition zone (DIZ) (Escherichia coli): inactive
- diameter of the inhibition zone (DIZ) (Pseudomonas aeruginosa): inactive
- Activity (Candida albicans [1]): inactive
- Activity (Candida albicans [2]): inactive
- IC50 (Dihydrofolate reductase [3]): 10000 nM

Compound: C=CC(=O)Nc1ccc2nc(SC)n(Cc3ccccc3)c(=O)c2c1
- diameter of the inhibition zone (DIZ) (Staphylococcus aureus): inactive
- diameter of the inhibition zone (DIZ) (Bacillus subtilis): inactive
- diameter of the inhibition zone (DIZ) (Micrococcus luteus): inactive
- diameter of the inhibition zone (DIZ) (Escherichia coli): inactive
- diameter of the inhibition zone (DIZ) (Pseudomonas aeruginosa): inactive
- Activity (Candida albicans [1]): inactive
- Activity (Candida albicans [2]): inactive
- IC50 (Dihydrofolate reductase [3]): 50000 nM

Compound: C=CCNc1ccc2nc(SCC=C)n(Cc3ccccc3)c(=O)c2c1
- diameter of the inhibition zone (DIZ) (Staphylococcus aureus): inactive
- diameter of the inhibition zone (DIZ) (Bacillus subtilis): inactive
- diameter of the inhibition zone (DIZ) (Micrococcus luteus): inactive
- diameter of the inhibition zone (DIZ) (Escherichia coli): inactive
- diameter of the inhibition zone (DIZ) (Pseudomonas aeruginosa): inactive
- Activity (Candida albicans [1]): inactive
- Activity (Candida albicans [2]): inactive
- IC50 (Dihydrofolate reductase [3]): 800 nM
- IC50 (Dihydrofolate reductase [4]): 1000 nM

Compound: CCSc1nc2ccc(C)cc2c(=O)n1Cc1ccccc1
- diameter of the inhibition zone (DIZ) (Staphylococcus aureus): inactive
- diameter of the inhibition zone (DIZ) (Bacillus subtilis): inactive
- diameter of the inhibition zone (DIZ) (Micrococcus luteus): inactive
- diameter of the inhibition zone (DIZ) (Escherichia coli): inactive
- diameter of the inhibition zone (DIZ) (Pseudomonas aeruginosa): inactive
- Activity (Candida albicans [1]): inactive
- Activity (Candida albicans [2]): inactive
- IC50 (Dihydrofolate reductase [3]): 35000 nM

Compound: CSc1nc2ccc([N+](=O)[O-])cc2c(=O)n1Cc1ccccc1
- diameter of the inhibition zone (DIZ) (Staphylococcus aureus): inactive
- diameter of the inhibition zone (DIZ) (Bacillus subtilis): inactive
- diameter of the inhibition zone (DIZ) (Micrococcus luteus): inactive
- diameter of the inhibition zone (DIZ) (Escherichia coli): inactive
- diameter of the inhibition zone (DIZ) (Pseudomonas aeruginosa): inactive
- Activity (Candida albicans [1]): inactive
- Activity (Candida albicans [2]): inactive
- IC50 (Dihydrofolate reductase [3]): 30000 nM

Compound: C=CCSc1nc2ccc(N(CC=C)CC=C)cc2c(=O)n1Cc1ccccc1
- diameter of the inhibition zone (DIZ) (Staphylococcus aureus): inactive
- diameter of the inhibition zone (DIZ) (Bacillus subtilis): inactive
- diameter of the inhibition zone (DIZ) (Micrococcus luteus): inactive
- diameter of the inhibition zone (DIZ) (Escherichia coli): inactive
- diameter of the inhibition zone (DIZ) (Pseudomonas aeruginosa): inactive
- Activity (Candida albicans [1]): inactive
- Activity (Candida albicans [2]): inactive
- IC50 (Dihydrofolate reductase [3]): 400 nM
- IC50 (Dihydrofolate reductase [4]): 900 nM

Compound: Cc1ccc2nc(SC/C=C/c3ccccc3)n(Cc3ccccc3)c(=O)c2c1
- diameter of the inhibition zone (DIZ) (Staphylococcus aureus): inactive
- diameter of the inhibition zone (DIZ) (Bacillus subtilis): inactive
- diameter of the inhibition zone (DIZ) (Micrococcus luteus): inactive
- diameter of the inhibition zone (DIZ) (Escherichia coli): inactive
- diameter of the inhibition zone (DIZ) (Pseudomonas aeruginosa): inactive
- Activity (Candida albicans [1]): inactive
- Activity (Candida albicans [2]): inactive
- IC50 (Dihydrofolate reductase [3]): 500 nM
- IC50 (Dihydrofolate reductase [4]): 1000 nM

Compound: C=CC(=O)Nc1ccc2nc(SC/C=C/c3ccccc3)n(Cc3ccccc3)c(=O)c2c1
- zone of inhibition at 200 µg/disc (Staphylococcus aureus; read-out: DIZ): 15 mm
- diameter of the inhibition zone (DIZ) (Bacillus subtilis): inactive
- diameter of the inhibition zone (DIZ) (Micrococcus luteus): inactive
- diameter of the inhibition zone (DIZ) (Escherichia coli): inactive
- diameter of the inhibition zone (DIZ) (Pseudomonas aeruginosa): inactive
- Activity (Candida albicans [1]): inactive
- Activity (Candida albicans [2]): inactive
- IC50 (Dihydrofolate reductase [3]): 1000 nM
- IC50 (Dihydrofolate reductase [4]): 2000 nM

Compound: CCOC(=O)CCSc1nc2ccc([N+](=O)[O-])cc2c(=O)n1Cc1ccccc1
- diameter of the inhibition zone (DIZ) (Staphylococcus aureus): inactive
- zone of inhibition at 200 µg/disc (Bacillus subtilis; read-out: DIZ): 14 mm
- diameter of the inhibition zone (DIZ) (Micrococcus luteus): inactive
- zone of inhibition at 200 µg/disc (Escherichia coli; read-out: DIZ): 16 mm
- zone of inhibition at 200 µg/disc (Pseudomonas aeruginosa; read-out: DIZ): 16 mm
- Activity (Candida albicans [1]): inactive
- Activity (Candida albicans [2]): inactive
- IC50 (Dihydrofolate reductase [3]): 25000 nM
